{"source": "patent US20120258938A1", "about": "“Enzymatic Production or Chemical Synthesis and Uses for 5,7-Dienes and UVB Conversion Products Thereof” (priority 2008, published 2012)", "key": {"[1]": {"test_system": "SKMEL-188 human melanoma cells", "test": "Proliferation (DNA synthesis) of SKMEL-188", "assay_type": "cell-based", "settings": "SKMEL-188, 72 h", "protocol": "To measure DNA synthesis, keratinocytes, melanoma or prostate cancer cells were plated in 96-well plates. After overnight incubation tested compounds were added to the medium to achieve final concentrations 10^−7-10^−10 [M]. 100 μl of medium per well containing vitamin D3 compound was added to the cells. After 36 hours of incubation [3H]-thymidine (specific activity 88.0 Ci/mmol; Amersham Biosciences, Picataway, N.Y., USA) was added at 1 μCi/mL medium. After 12 hours, media were discarded, cells detached with trypsin and harvested on a glass fiber filter (Packard, Meriden, Calif., USA). 3H-radioactivity was measured with a beta counter (Direct Beta-Counter Matrix 9600; Packard).\nHaCaT keratinocytes were an incubated for 48 h (FIG. 48A) or 72 h (FIG. 48B) in the presence of graded concentrations of 20(OH)D2 and/or 1,25(OH)2D3. […] Data are shown as mean±SD (n 3); *, p<0.05; **, p<0.01."}, "CYP24": {"test_system": "CYP24", "test": "Real-time RT PCR CYP24 mRNA, normal epidermal keratinocytes", "assay_type": "cell-based, human", "protocol": "RNA was extracted as above. Reverse transcription was performed with Transcriptor First Strand cDNA Synthesis Kit (Roche, Nutley, N.J.). The primers (right: 5′-GCA GCT CGA CTG GAG TGA C-3′ (SEQ ID NO: 1) and left: 5′-CATCATGGCCATCAAAACAAT-3′(SEQ ID NO: 2)) and probe (cat. no. 04689135001) were designed with Universal Probe Library (Roche, Nutley, N.J.). Real-time PCR was performed using TaqMan PCR Master Mix at 50° C. for 2 min, 95° C. for 10 min and then 50 cycles (95° C. for 15 sec, 60° C. for 1 min). The data was collected on a Roche Light Cycler 480. The amounts of CYP24 were normalized using cyclophilin D as a housekeeping gene with comparative CT method."}, "[2]": {"test_system": "human osteosarcoma cell line MG-63", "test": "Proliferation of MG-63 osteosarcoma cells", "assay_type": "cell-based", "protocol": "Cells were seeded in 96-well plate and incubated with 20-hydroxycholecalciferol in DMEM medium containing 5% FBS for 48 h (FIG. 25A) or 72 h (FIG. 25C) or for 24 h after a 12 h synchronization in serum free medium (FIG. 25D). […] was added for a final 18 h (FIGS. 25A, 25D) or 12 h (FIG. 25C) of incubation or cells were assessed with sulforhodamine assay (FIG. 25C). Data is shown as mean±SEM (n=5; FIG. 24C) or mean±SEM (n=6; FIGS. 24A, 24C, 24D) and was analyzed using GraphPrism 4.0."}, "Col1A1 mRNA": {"test_system": "Col1A1 mRNA", "test": "Real time RT PCR Col1A1 mRNA, TGF-b1 stimulated skin fibroblasts", "assay_type": "cell-based", "settings": "human skin fibroblasts", "protocol": "Additional studies using human skin fibroblasts were performed employing a type I collagen specific ELISA Chondrex, and real time RT PCR to quantitate type I collagen protein and Col1A1 mRNA expression in culture of human fibroblast stimulated by TGF-b1 in the presence and absence of 17,20S(OH)2pD3 and/or 20(OH)D3. These studies confirmed that Type I collagen protein production that was induced by TGF-b1 and that Col1A1 mRNA that was induced by TGF-b1 were suppressed by these analogues (FIGS. 44A-44B)."}, "[3]": {"test_system": "HL-60 human promyelocytic leukemia cells", "test": "Monocytic differentiation (NBT), HL-60", "assay_type": "cell-based", "settings": "HL-60, 0.1 μM", "protocol": "HL-60 human promyelocytic and U937 promonocytic leukemia cells were treated with the drugs at 0.1 μM or vehicle (negative control or 12-O-tetradecanoylphorbol-13-acetate (TPA) (positive control). Media were changed every 72 h and test substances added fresh every day. Differentiation toward monocytes-like morphology and NBT-reduction has been assessed after 5 and 7 days. Cells (2×106) were washed with PBS four times and resuspended in 200 μL of NBT solution (4 mg/mL) in water. After the addition of 200 ul of TPA solution (2 ug/ml) in PBS cells were incubated at 37° C. for 60 min in 24-well plates. Cell differentiation was assessed by intracellular blue formazan deposits. The NBT positive and negative cells were scored under light microscopy examination (40×) with a minimum of 200 cells scored.\nFor spectrophotometric analysis the cells were washed twice with buffer containing cold bovine serum albumin solution (17 mg/mL BSA, 137 mmol/L, NaCl, 5 mmol/L, KCl, 0.8 mmol/L, MgSO4, […], HEPES, pH7.4) to remove unreacted NBT, and the insoluble formazan deposits in the resulting pellet were solubilized in 1 mL of a mixture containing 90% DMSO, 0.1% SDS and 0.01 mmol/L NaOH by vigorous vortexing. The samples were centrifuged 5 min at 1500 g to remove the cellular debris, and then the absorbance of supernatants was measured at 715 nm. Data are expressed as change in A715/106 cells."}}}
{"smiles": "C=C1/C(=C\\C=C2/CCC[C@]3(C)[C@@H]([C@H](C)CCCC(C)(C)O)CC[C@@H]23)C[C@@H](O)C[C@@H]1O", "note": "[1α,25-dihydroxycholecalciferol, (5Z,7E)-9,10-secocholesta-5,7,10(19)-triene-1α,3β,25-triol, reference compound]", "values": [{"measurement": "proliferation", "setting": "[1]", "value": "Dose dependent inhibition of the proliferation"}]}
{"smiles": "C=C1CC[C@H](O)C/C1=C/C=C1\\CCC[C@@]2(C)[C@H]1CC[C@@H]2[C@@](C)(O)CCCC(C)C", "note": "[20(OH)D3, (5Z,7E)-9,10-secocholesta-5,7,10(19)-triene-3β,20-diol]", "values": [{"measurement": "increase of CYP24 mRNA levels", "setting": "CYP24; 10 nM, 24 h", "value": 1.3, "unit": "fold"}, {"measurement": "stimulation of CYP24 mRNA", "setting": "CYP24; 10^−6, 24 h", "value": "~247", "unit": "fold"}, {"measurement": "EC50", "setting": "[2]", "value": 570, "unit": "nM"}, {"measurement": "TGF-b1 induced Col1A1 mRNA", "setting": "Col1A1 mRNA", "value": "suppressed"}]}
{"smiles": "C=C1CC[C@H](O)C/C1=C/C=C1\\CCC[C@]2(C)[C@@H](C(C)=O)CC[C@@H]12", "note": "[pD3, (5Z,7E)-3β-hydroxy-9,10-secopregna-5,7,10(19)-trien-20-one]", "values": [{"measurement": "monocytic differentiation (NBT staining)", "setting": "[3]", "value": "induce monocytic differention"}]}
